From US20240139217A1, “FORMULATIONS OF CANNABINOIDS” (ADD Advanced Drug Deliver Technologies LTD., priority 2021, published 2024)

Assay: Clinical study of bioavailability and pharmacokinetic properties, multiple oral dose crossover
Format: in vivo, healthy subjects
Conditions: Mean; analyte cannabidiol in plasma; 1,500 mg CBD oral twice daily over 7 days after a light meal; 144-168 h
Method: Bioavailability and pharmacokinetic properties of cannabidiol when administered orally in the form of the above described CBD granules containing 29.7% w/w cannabidiol was assessed in a clinical study.
The study involved a comparison with a reference product, an oily cannabidiol solution (DAC C-052 “Cannabidiol”/NRF 22.10 “Ölige Cannabidiol-Lösung 100 mg/ml” (“Oily cannabidiol solution 100 mg/ml”)) and was set up as an open-label, randomised (order of treatments), balanced, multiple dose trial was performed in a 2-period, 2-sequence-crossover design with direct switch-over.
Eighteen (18) healthy subjects of both sexes were randomised. The inclusion criteria involved a body-mass index (BMI)≥18.5 kg/m^2 and ≤30.0 kg/m^2.
The investigational medicinal products were administered after a light meal as single oral doses of 1500 mg cannabidiol (i.e., 5.051 g granules dispersed in water or 15 ml solution) twice daily (i.e., every 12 h) over 7 consecutive days.
Steady-state characterisation was performed over 2 dosing intervals. […]
Cannabidiol (CBD) and its metabolite 7-hydoxy cannabidiol (7-OH-CBD) in plasma samples were analysed by use of a validated LC-MS/MS; LLOQ for CBD was 5.00 ng/ml and for 7-OH-CBD was 1.000 ng/ml.

For `C=C(C)[C@@H]1CCC(C)=C[C@H]1c1c(O)cc(CCCCC)cc1O` [cannabidiol, 2-[(1R,6R)-3-methyl-6-(1-methylethenyl)-2-cyclohexen-1-yl]-5-pentyl-1,3-benzenediol], the “PTF %,144-168” value was “about 250%”.
